We go through one compound from patent US20030216471A1, “Retinoid formulations for aerosolization and inhalation” (priority 2003, published 2003).

The test system of assay [1] is TGase II. The assay can be described thus: TGase II assay of rat lung tissue after inhaled 13-cis RA (experiment B). The assay is classed as in vivo. Here is the method: Male rats (n=23) (Sprague-Dawley from Charles River) were divided into six experimental groups and were given varying amounts of 13-cis RA through an inhalant apparatus once daily for different times each day for 14 days. The experimental groups were as follows (Table 1): 1. Vehicle control: rats (3) inhaled vehicle for 240 minutes; 2. Low dose 13-cis RA: rats (4) inhaled a solution containing 13-cis RA at a concentration of 62.2 μg/liter (inhaled dose 115.0 μg/kg body weight) in 5 minutes; 3. Low-Middle dose 13-cis RA: rats (4) inhaled a solution containing 13-cis RA at a concentration of 62.2 μg/liter (inhaled dose 334.4 μg/kg body weight) in 15 minutes; 4.Middle dose 13-cis RA: rats (4) inhaled a solution containing 13-cis RA at a concentration of 62.2 μg/liter (inhaled dose 1012.3 μg/kg body weight) in 45 minutes; 5. Middle-High dose 13-cis RA: rats (4) inhaled a solution containing 13-cis RA at a concentration of 62.2 μg/liter (inhaled dose 2843.4 μg/kg body weight) in 120 minutes; 6. High dose 13-cis RA:rats (4) inhaled a solution containing 13-cis RA at a concentration of 62.2 μg/liter (inhaled dose 5935.6 μg/kg body weight) in 240 minutes.
(§1) Enzyme assay mixtures were prepared by adding 80 μl of SUBSTRATE mixture (322.8 μl H2O, 120 μl 0.5M NaBorate, 60 μl 0.01M EDTA, 60 μl 0.1M CaCl2, 6 μl 1M DTT, 240 μl dimethyl casein, 30 μl Triton X-100, 1.21 μl [^3H]-Putrescine, 120 μl Putrescine) to 20 μl sample, 20 μl scraping buffer for blank control, 20 μl (18 μl scraping buffer+2 μl TGase II) for positive control. Samples were mixed in 15 ml tubes, the tubes were shaken before putting them into a 28° C. water bath for 30 minutes. Reactions were slowed down in an ice bath. 80 μl of the incubation mixture was adsorbed onto paper disks. These were immediately dropped into cold 10% TCA (0.1% Putrescine) and washed with agitation for 7 minutes, followed by 2 additional washes with 5% TCA (0.05% putrescine) for 5-7 minutes, and once more with cold (−20° C.) 95% ethanol for 5 minutes. Paper disks were dried and placed into 5 ml Aquasol, and counted in a Liquid Scintillation Counter. Protein concentration determination was conducted by the Bradford method.
Cannon (Cannon et al., 1983).

Assay [2] has as its system TGase II. Description: TGase II assay of rat liver tissue after inhaled 13-cis RA (experiment B). The assay is classed as in vivo. As to conditions: for TGase II assay, rat liver: 14 days. Here is the method:
The experimental groups were as follows (Table 1): 1. Vehicle control: rats (3) inhaled vehicle for 240 minutes; 2.
For liver tissue, a piece of approximately 100-400 mg was used. Tissue was diced in small pieces and homogenized in approximately 2 volumes of scraping buffer for 2-3 minutes at 4° C. Samples were centrifuged at 14,000 xg for 30 minutes at 4° C. The supernatant was removed and kept in ice until used.
as §1

Structures are written as SMILES. “And” between values parts separate entries of the source, which are not always exact repeats. Equal entries are not always repeated. “Also recorded” adds a separate entry of the source.

With `CC1=C(/C=C/C(C)=C/C=C/C(C)=C\C(=O)O)C(C)(C)CCC1` [13-cis RA, 13-cis-Retinoic Acid], the “TGase II assay, rat lung” value was 8053 DPM/μg protein in assay [1] (High dose, 240 min daily, 14 days); 0.1025+/−0.004 picomoles/μg protein/30 min and 0.1025 ± 0.004 picomoles/μg protein/30 min in assay [1] (High dose: 1872 μg/kg total deposited, 240 min daily, 14 days); 7503 DPM/μg protein in assay [1] (Low dose, 5 min daily, 14 days, vehicle 3535); 0.0955+/−0.004 picomoles/μg protein/30 min and 0.0955 ± 0.004 picomoles/μg protein/30 min in assay [1] (Low dose: 39 μg/kg total deposited, 5 min daily, 14 days, vehicle 0.0450); 9035 DPM/μg protein in assay [1] (Low-Middle dose, 15 min daily, 14 days); 0.1150+/−0.006 picomoles/μg protein/30 min and 0.1150 ± 0.006 picomoles/μg protein/30 min in assay [1] (Low-Middle dose: 117 μg/kg total deposited, 15 min daily, 14 days). In addition, the “TGase II assay, rat lung” value in assay [1] (Middle dose, 45 min daily, 14 days) is 10449 DPM/μg protein; in assay [1] (Middle dose: 351 μg/kg total deposited, 45 min daily, 14 days) it was 0.1330+/−0.009 picomoles/μg protein/30 min and 0.1330 ± 0.009 picomoles/μg protein/30 min; in assay [1] (Middle-High dose, 120 min daily, 14 days), 8014 DPM/μg protein; in assay [1] (Middle-High dose: 936 μg/kg total deposited, 120 min daily, 14 days) it was 0.1020+/−0.005 picomoles/μg protein/30 min and 0.1020 ± 0.005 picomoles/μg protein/30 min. Further, the “stimulation of lung TGase activity” value worked out at 2.9 Fold in assay [1] (maximum, inhaled dose 1012.3 μg/kg (45 minutes of inhalation), 14 days) and 1.2 fold in assay [1] (with larger amounts of inhaled retinoid). Moreover, the “TGase II assay, rat liver” value was 19719 DPM/μg protein in assay [2] (High dose); 0.271+/−0.015 picomoles/μg protein/30 min and 0.271 ± 0.015 picomoles/μg protein/30 min in assay [2] (High dose: 1872 μg/kg total deposited); 22705 DPM/μg protein in assay [2] (Low dose, vehicle 20426); 0.289+/−0.007 picomoles/μg protein/30 min and 0.289 ± 0.007 picomoles/μg protein/30 min in assay [2] (Low dose: 39 μg/kg total deposited, vehicle 0.260); 21448 DPM/μg protein in assay [2] (Low-Middle dose); 0.273+/−0.018 picomoles/μg protein/30 min and 0.273 ± 0.018 picomoles/μg protein/30 min in assay [2] (Low-Middle dose: 117 μg/kg total deposited). Besides, the “TGase II assay, rat liver” value in assay [2] (Middle dose) was 24590 DPM/μg protein; in assay [2] (Middle dose: 351 μg/kg total deposited), 0.313+/−0.025 picomoles/μg protein/30 min and 0.313 ± 0.025 picomoles/μg protein/30 min; in assay [2] (Middle-High dose) it was 20348 DPM/μg protein; in assay [2] (Middle-High dose: 936 μg/kg total deposited), 0.269+/−0.015 picomoles/μg protein/30 min and 0.269 ± 0.015 picomoles/μg protein/30 min. For the same compound, in assay [2] (rat, up to 5.93 mg/kg of inhaled dose), the “effect of inhaled 13-cis RA on liver TGase II activity” value is reported as “without significant effect; also recorded: fails to significantly alter; also recorded: no significant effect”.
